Data set [1] deals with TGF beta signalling (pSMAD2). It is filed as cell-based. To be noted: leading to MATN2 reduction.
The target of the next data set is MAO-A (Homo sapiens (Human), UniProt P21397). In words: Monoamine oxidase A (MAO-A) selectivity assay (MAO-Glo). It is filed as biochemical.
The next data set concerns the target MAO-B (Homo sapiens (Human), UniProt P27338). In words: Monoamine oxidase B (MAO-B) selectivity assay (MAO-Glo). It is filed as biochemical.
Data set [2] deals with MATN2 in MDA-MB-231 cells. Nature of the data set: MATN2 level in MDA-MB-231 cells (Western blotting). It counts as cell-based, human. Conditions: at a much higher concentration than 20 μM. As for the experimental part:
Proteins were extracted from cultured cells using cell lysis buffer (Cell Signalling Technology) with the addition of protease and phosphatase inhibitor cocktails (Pierce). Protein concentrations were measured using Pierce 660 nm protein assay reagent and SpectaMax M5 plate reader. […] Separated proteins were transferred to nitrocellulose membranes using a Trans-Blot turbo transfer system (Bio-Rad). Following blocking with Odyssey blocking buffer (Li-COR), membranes were incubated with two primary antibodies of different species at 4° C. over night. Corresponding fluorescence secondary antibodies (Li-COR) of different excitation and emission wavelengths were used to visualize the protein of interest on an Odyssey CLx infrared imaging system (Li-COR). Quantification of band fluorescent intensity was achieved using Li-COR ImageStudio. The following primary antibodies were used, anti-LOX (Sigma), anti-human MATN2 (R&D), anti-EGFR and anti-pY1068EGFR (Cell Signalling Technology), and anti-GAPDH (Millipore).
LOX inhibitors show significant reduction of MATN2 in MDA-MB-231 cells treated at 20 μM overnight.

In the next data set the target is DAO (Sus scrofa, UniProt Q9TRC7). Conditions: read-out: DAO IC50.
Chain of DAO (Q9TRC7 25-755 limits assumed): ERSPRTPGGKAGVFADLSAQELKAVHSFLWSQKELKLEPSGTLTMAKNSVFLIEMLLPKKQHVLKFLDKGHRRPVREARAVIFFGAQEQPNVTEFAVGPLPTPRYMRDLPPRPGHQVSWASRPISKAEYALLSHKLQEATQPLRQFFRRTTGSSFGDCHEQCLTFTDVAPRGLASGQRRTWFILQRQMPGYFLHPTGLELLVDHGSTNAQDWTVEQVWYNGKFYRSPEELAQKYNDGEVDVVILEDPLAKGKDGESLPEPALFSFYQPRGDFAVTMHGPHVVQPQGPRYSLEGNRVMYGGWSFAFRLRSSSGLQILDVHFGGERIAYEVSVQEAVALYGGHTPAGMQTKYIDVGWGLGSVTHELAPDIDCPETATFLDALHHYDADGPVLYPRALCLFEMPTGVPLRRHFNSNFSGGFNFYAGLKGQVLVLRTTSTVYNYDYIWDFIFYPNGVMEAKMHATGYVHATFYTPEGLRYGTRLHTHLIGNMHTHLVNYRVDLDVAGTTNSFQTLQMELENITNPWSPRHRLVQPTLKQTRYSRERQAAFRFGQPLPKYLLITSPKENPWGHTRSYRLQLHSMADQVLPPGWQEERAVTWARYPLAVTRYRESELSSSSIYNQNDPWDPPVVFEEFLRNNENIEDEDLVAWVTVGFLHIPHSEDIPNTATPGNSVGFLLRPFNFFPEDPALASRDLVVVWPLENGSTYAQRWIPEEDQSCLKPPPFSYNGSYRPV
The nature of data set [3]: in vivo. Conditions: female, mouse, po, 50 mg/kg.
The nature of data set [4]: in vivo. Conditions: rat, po, 20 mg/kg.

We go through eight molecules from US10995088B2, “Methylamine derivatives as lysysl oxidase inhibitors for the treatment of cancer” (The Institute of Cancer Research: Royal Cancer Hospital, priority 2016, dated 2021).

In general, IC50 refers to the concentration needed to halve the response being measured. In general, bioavailability refers to dose-corrected exposure relative to a reference, in per cent. The low end stands for little systemic uptake, the high end for much systemic uptake.

SMILES strings stand for the structures. Structures can show the parent of a compound that is named as a salt.

Chain of MAO-A (P21397 whole entry): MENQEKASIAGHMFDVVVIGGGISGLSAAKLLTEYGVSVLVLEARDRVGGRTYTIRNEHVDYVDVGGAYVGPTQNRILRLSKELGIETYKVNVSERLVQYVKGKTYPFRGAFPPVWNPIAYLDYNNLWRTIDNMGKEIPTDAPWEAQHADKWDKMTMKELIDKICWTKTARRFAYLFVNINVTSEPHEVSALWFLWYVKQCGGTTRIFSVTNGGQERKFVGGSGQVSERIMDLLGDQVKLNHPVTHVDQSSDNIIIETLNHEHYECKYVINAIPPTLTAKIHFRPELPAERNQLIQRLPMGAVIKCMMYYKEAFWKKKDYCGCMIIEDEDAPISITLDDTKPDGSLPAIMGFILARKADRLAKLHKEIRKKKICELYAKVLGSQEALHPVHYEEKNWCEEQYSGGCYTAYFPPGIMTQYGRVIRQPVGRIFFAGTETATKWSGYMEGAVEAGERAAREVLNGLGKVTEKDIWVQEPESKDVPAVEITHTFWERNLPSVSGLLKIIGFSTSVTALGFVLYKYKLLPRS
Chain of MAO-B (P27338 whole entry): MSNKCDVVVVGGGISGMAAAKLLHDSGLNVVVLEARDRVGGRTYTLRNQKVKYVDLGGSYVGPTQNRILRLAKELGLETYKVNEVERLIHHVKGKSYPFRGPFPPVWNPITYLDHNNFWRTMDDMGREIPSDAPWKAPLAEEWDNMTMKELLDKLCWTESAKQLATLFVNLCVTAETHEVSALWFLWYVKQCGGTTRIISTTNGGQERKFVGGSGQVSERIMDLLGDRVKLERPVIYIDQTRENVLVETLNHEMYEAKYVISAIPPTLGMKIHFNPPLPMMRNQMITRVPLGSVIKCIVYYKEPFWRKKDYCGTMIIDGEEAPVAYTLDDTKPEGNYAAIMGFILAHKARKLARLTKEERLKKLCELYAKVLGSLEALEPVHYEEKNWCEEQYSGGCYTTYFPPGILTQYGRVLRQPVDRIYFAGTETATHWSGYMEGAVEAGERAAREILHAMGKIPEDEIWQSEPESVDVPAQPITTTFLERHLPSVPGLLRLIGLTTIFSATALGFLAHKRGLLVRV

On to `N#CCCN` [BAPN, beta-aminopropionitrile], for which, in data set [1], the “TGF beta signalling as indicated by pSMAD2” value is “increased”. Moreover, the MAO-A inhibition entry at MAO-A was “neither inhibits”. The MAO-B inhibition result on MAO-B is on record as “neither inhibits”. Also, in data set [2], the “reduction of MATN2” value is “The same effect was seen”.
As for `Cc1ccc(-c2cc(S(=O)(=O)c3ccc(CN)s3)ccc2S(C)(=O)=O)cc1` [Example 82, (5-((4′-Methyl-6-(methylsulfonyl)-[1,1′-biphenyl]-3-yl)sulfonyl)thiophen-2-yl)methanamine hydrochloride], the half-inhibitory concentration (IC50) at DAO was over 100 µM. The molecule also came in with a bioavailability in the data set “in vivo [3]” of 74%.
Take `CCc1cc(-c2ccc[n+]([O-])c2)cc(S(=O)(=O)c2cnc(CN)s2)c1` [Example 113, 3-(3-((2-(Aminomethyl)thiazol-5-yl)sulfonyl)-5-ethylphenyl)pyridine 1-oxide hydrochloride]: the IC50 at DAO was over 100 µM.
On to `Cn1cc(-c2cccc(S(=O)(=O)c3cnc(CN)s3)c2)cn1` [Example 116, (5-((3-(1-Methyl-1H-pyrazol-4-yl)phenyl)sulfonyl)thiazol-2-yl)methanamine], for which the IC50 at DAO is over 100 µM.
On to `CN(C)C(=O)c1cc(-c2ccccc2)cc(S(=O)(=O)c2cnc(CN)s2)c1` [Example 125, 5-((2-(Aminomethyl)thiazol-5-yl)sulfonyl)-N,N-dimethyl-[1,1′-biphenyl]-3-carboxamide dihydrochloride], for which the IC50 on DAO is over 100 µM.
As for `NCc1ncc(S(=O)(=O)c2cc(C(=O)O)cc(-c3ccccc3)c2)s1` [Example 126, 5-((2-(Aminomethyl)thiazol-5-yl)sulfonyl)-[1,1′-biphenyl]-3-carboxylic acid ditrifluoroacetate], the bioavailability in the data set “in vivo [4]” worked out at 33%; in the data set “in vivo [3]” it was 67%.
For `Cn1cc(-c2cc(F)cc(S(=O)(=O)c3cnc(CN)s3)c2)cn1` [Example 131, (5-((3-Fluoro-5-(1-methyl-1H-pyrazol-4-yl)phenyl)sulfonyl)thiazol-2-yl)methanamine trihydrochloride], on DAO, the IC50 was over 100 µM.
As to `Cn1cc(-c2cc(C(=O)O)cc(S(=O)(=O)c3cnc(CN)s3)c2)cn1` [Example 150, 3-((2-(Aminomethyl)thiazol-5-yl)sulfonyl)-5-(1-methyl-1H-pyrazol-4-yl)benzoic acid tihydrochloride], the IC50 on DAO was over 100 µM.
